The values that follow come from patent US20040248208A1, “Screening method” (priority 2001, published 2004).

The target of one experiment is T1, TGR4 (Homo sapiens, UniProt Q9H1C0).
T1 construct: expressed in transfected cells
The experiment can be described thus: cAMP production in TGR4-expressing CHO cells. The class given is cell-based. The note with it: CHO-TGR4 (FIG. 18). The method, then:
The CHO-TGR4 prepared in EXAMPLE 2, or the CHO-mock cells, in which no receptor gene is introduced, were seeded on 96-well plate at the concentration of 25,000 cells/well. After cultivation at 37° C. in the presence of 5% CO2 for overnight, the cells were used for assay. For the sample buffer, HBSS supplemented with 0.1% BSA and 0.2 mM IBMX (Sigma) was used. The cells were washed twice with the sample buffer and pre-incubated at 37° C. for 30 minutes. Thereafter, the cells were also washed twice and incubated at 37° C. for 30 minutes after adding of sample. Farnesyl 2-phosphate or lysophophatidic acid was added to the sample to make a finalconcentration 2 μM. After incubation with the sample, a level of cAMP production was measured using cAMP Screen System (ABI).
As well as the method described in EXAMPLE 8, using TGR4-expressing CHO cells and mock CHO cells, a study on concentration dependency of cAMP production increasing activity by substances associated with various phospholipids compounds was made. […] For abbreviation of compounds, see EXAMPLE 9.
On the technique in general: cAMP levels reflect the balance of adenylyl cyclase and phosphodiesterase activity.
In the case of `CC(C)=CCC/C(C)=C/CC/C(C)=C/CC/C(C)=C/COP(=O)(O)OP(=O)(O)O` [Geranylgeranyl 2-phosphate, geranylgeranyl 2-phosphate], the “cAMP production increasing activity dependent on concentration” value is “activity dependent on concentration was perceived”. The same measure, in the same setting: as for `CC(C)=CCC/C(C)=C/CC/C(C)=C/COP(=O)(O)OP(=O)(O)O` [Farnesyl 2-phosphate, farnesyl 2-phosphate], the entry is “activity dependent on concentration was perceived”.

The experiment is the same for the next values; noted with them: final concentration 2 μM, 30 minutes; CHO-TGR4 versus CHO-mock (FIGS. 7 and 8).
For the compound lysophosphatidic acid, the “level of cAMP production” value is on record as “increased in the manner specific to CHO-TGR4”. Turning to `CC(C)=CCC/C(C)=C/CC/C(C)=C/COP(=O)(O)OP(=O)(O)O` [Farnesyl 2-phosphate, farnesyl 2-phosphate], the “level of cAMP production” value is given as “increased in the manner specific to CHO-TGR4”.

The target of another experiment is T1, TGR4. The experiment can be described thus: Intracellular calcium ion mobilization activity in TGR4-expressing CHO cells (FLIPR). It is filed as cell-based. The note with it: CHO-TGR4 (FIG. 16). The method, then: Using TGR4 expression vector prepared in EXAMPLE 1, according to the publicly known method, the CHO cells stably expressing TGR4, which is designated CHO-TGR4, were prepared. CHO-TGR4 or CHO-mock cells, in which no receptor gene is introduced, was seeded to 96-well plate of Black plate, Clear bottom available from Costar at the concentration of 30,000 cells/well. After cultivation at 37° C. in the presence of 5% CO2 for overnight, the cells were used for assay. For washing buffer, Hank's balanced salt solution (HBSS, GibcoBRL) supplemented with 20 mM HEPES (pH7.4) and 2.5 mM probeneside (Sigma) was prepared. For sample buffer, the washing buffer supplemented with 0.1% bovine serum albumin (BSA, Sigma) was used. The washing buffer supplemented with 1% FBS, 4 μM Fluo 3-AM (Wako Pure Chemicals) and 0.04% Pluronic acid (Molecular Probes) was used as a dye loading solution. After discarding the medium, adding the dye loading solution and incubating the cells at 37° C. for 1 hour, using the plate washer, the cells were washed with the washing buffer. The cells were set to Fluorometric Imaging Plate Reader (FLIPR, Molecular Device) and the change of intracellular calcium ion concentration during three minutes after addition of sample was measured. FPP and LPA were added to sample to make a final concentration 2.5 μM each.
As well as the method described in EXAMPLE 7, using TGR4-expressing CHO cells and mock CHO cells, a study on concentration dependency of intracellular calcium ion mobilization activity by substances associated with various phospholipids compounds was made. For substances associated with various phospholipids compounds, geranylgeranyl 2-phosphate, farnesyl 2-phosphate, geranyl 2-phosphate, lysophosphatidic acid, sphingosine 1-phosphate, nordeoxycholic acid, deoxycholic acid, geranylgeranyol, farnesol were used.
As to `CC(C)=CCC/C(C)=C/CC/C(C)=C/CC/C(C)=C/COP(=O)(O)OP(=O)(O)O` [Geranylgeranyl 2-phosphate, geranylgeranyl 2-phosphate], the “concentration dependency of intracellular calcium ion mobilization activity” value is reported as “activity dependent on concentration was perceived”. On the same count and under the same terms, as for `CC(C)=CCC/C(C)=C/CC/C(C)=C/COP(=O)(O)OP(=O)(O)O` [Farnesyl 2-phosphate, farnesyl 2-phosphate], the entry is “activity dependent on concentration was perceived”.

Still in this experiment, the particulars now being: TGR4-expressing CHO cells; 100% = reaction when 2 × 10^−6 M farnesyl 2-phosphate was added; read-out: Intracellular Ca^2+ mobilization activity (EC50).
By EC50 is commonly meant the concentration giving half of the maximal effect. Turning to `CC(C)=CCOP(=O)(O)OP(=O)(O)O` [Dimethylaryl 2-phosphate], the half-maximal effective concentration (EC50) was above 2500 nM. Still for that read-out and setting: as for `C[C@H](CC(=O)O)[C@H]1CC[C@H]2[C@@H]3CC[C@@H]4C[C@H](O)CC[C@]4(C)[C@H]3C[C@H](O)[C@]12C` [Nordeoxycholic acid], the figure is above 2500 nM.

With `CCCCCCCCCCCCC/C=C/[C@@H](O)[C@@H](N)COP(=O)(O)O` [Sphingosine 1-phosphate], the concentration giving a half-maximal response (EC50) was 1500 nM. On the same count and under the same terms, as for `C[C@H](CCC(=O)O)[C@H]1CC[C@H]2[C@@H]3CC[C@@H]4C[C@H](O)CC[C@]4(C)[C@H]3CC[C@]12C` [Lithocolic acid], the figure is above 2500 nM. On the same count and under the same terms, next, `CC(C)=CCC/C(C)=C/CCC(=O)O` [Geranyl acetic acid]: above 2500 nM; `CC(C)=CCC/C(C)=C/CC/C(C)=C/CC/C(C)=C/CO` [Geranylgeranyol]: above 2500 nM. Regarding `CC(C)=CCC/C(C)=C/CC/C(C)=C/CC/C(C)=C/COP(=O)(O)OP(=O)(O)O` [Geranylgeranyl 2-phosphate, geranylgeranyl 2-phosphate], the concentration giving a half-maximal response (EC50) stood at 19 nM. On to `CC(C)=CCC/C(C)=C/CC/C(C)=C/COP(=O)(O)OP(=O)(O)O` [Farnesyl 2-phosphate, farnesyl 2-phosphate], for which the EC50 was 29 nM.

Regarding `CC(C)=CCC/C(C)=C/CCl` [Geranylchloride], the concentration for a half-maximal effect (EC50) was above 2500 nM. On the same count and under the same terms, next, `CC(C)=CCC/C(C)=C/CN` [Geranylamine]: above 2500 nM; `CC(C)=CCC/C(C)=C/COP(=O)(O)OP(=O)(O)O` [Geranyl 2-phosphate]: above 2500 nM.

For the compound `CC(C)=CCC/C(C)=C/CO` [Geranyol], the EC50 is above 2500 nM. For the compound `C[C@H](CCC(=O)O)[C@H]1CC[C@H]2[C@@H]3CC[C@@H]4C[C@H](O)CC[C@]4(C)[C@H]3C[C@H](O)[C@]12C` [Deoxycholic acid], the concentration giving a half-maximal response (EC50) is above 2500 nM. Take `CC(C)=CCCC(C)=CCCC(C)=CCO` [Farnesol]: the concentration giving a half-maximal response (EC50) is above 2500 nM. The same measure, in the same setting: next, `CC(=O)CC/C=C(\C)CCC=C(C)C` [Geranyl acetone]: above 2500 nM.

The experiment is the same for the next values; noted with them: final concentration 2.5 μM; CHO-TGR4 versus CHO-mock (FIGS. 5 and 6).
For `CC(C)=CCC/C(C)=C/CC/C(C)=C/COP(=O)(O)OP(=O)(O)O` [Farnesyl 2-phosphate, farnesyl 2-phosphate], the “intracellular calcium ion mobilization activity” value was “increased in the manner specific to CHO-TGR4”.

The next experiment deals with T1, TGR4. The experiment can be described thus: CRE-luciferase reporter gene assay in CHO cells transiently expressing TGR4. The note with it: 0.1 μM, 4 hours; TGR4 and Gi co-transfected with pCRE-Luc (FIG. 4). It is filed as cell-based. The method, then: The expression vector plasmid pAK-TGR4 or pAK-Gi, which was prepared by inserting TGR4 cDNA or suppressive G protein a subunit Gi cDNA into pAKKO-111H, the expression plasmid vector for animal cells (the same plasmid vector as pAKKO-111H described in Biochem. Biophys. Acta by Hinuma, S. et al., Vol. 1219, pp. 251-259, 1994), and original pAKKO-111H, in which no specific gene was inserted, were transfected into the CHO cells by the following method.
Using these vectors, Escherichia coli JM109 was transformed. A colony obtained was isolated and cultured for preparation of plasmid with QIAGEN Plasmid Maxi Kit (Qiagen). Further, plasmid of pCRE-Luc (CLONTECH), in which luciferase gene is ligated as a reporter downstream cAMP response element (CRE), was prepared in a similar method. The CHO-mock cells, wherein the CHO (dhfr^−0 cells were transformed with pAKKO-111H, were seeded in 96-well black plate (Costar) at 40,000 cells/well and 100 μl of culture volume, and were cultured for overnight. For a culture on the plate, DMEM (Dulbecco's modified Eagle's medium, CibcoBRL) supplemented with nothing but 10% fetal bovine serum was used. In order to detect an increase of expression level of the reporter gene more clearly, the pAK-Gi was co-transfected with the pAK-TGR4. Each plasmid was added to 240 μl of Opti-MEM-I (GibcoBRL) at the ratio of 7:3:1 of pAK-TGR4:pAK-Gi:reporter plasmid pCRE-Luc. This solution was mixed with the same volume of solution wherein 10 μl of Lipofectamine 2000 was added to 240 μl of Opti-MEM-I to form a complex of liposome and plasmid according to the method described in the manual attached to Lipofectamine 2000. To culture of CHO-mock cells, 25 μl/well of the above-mentioned solution was added. After 4 hours at 37° C., a culture broth was replaced to an assay buffer (DMEM supplemented with 0.1% bovine serum albumin) to be serum-free for introduction of the plasmid. Then, these cells were cultured at 37° C. under the condition of 5% CO2 for overnight.
To the CHO-mock cells transfected as described above, geranylgeranyl 2-phosphate (GGPP, Sigma), farnesyl 2-phosphate (FPP, Sigma) and lysophosphatidic acid (LPA, Sigma) were added to the concentration of 1 μM, 0.1 μM, and […], respectively, and incubated at 37° C. under the condition of 5% CO2 for 4 hours. After discarding the supernatant, 50 μl of Picagene LT2.0, the substrate for assaying luciferase activity were added, and luminescence level of luciferase was measured using plate reader (ARVO sx multilabel counter, Wallac).
With `CC(C)=CCC/C(C)=C/CC/C(C)=C/CC/C(C)=C/COP(=O)(O)OP(=O)(O)O` [Geranylgeranyl 2-phosphate, geranylgeranyl 2-phosphate], the luciferase activity entry was “increase of luciferase activity was detected”. Consider `CC(C)=CCC/C(C)=C/CC/C(C)=C/COP(=O)(O)OP(=O)(O)O` [Farnesyl 2-phosphate, farnesyl 2-phosphate], for which the luciferase activity entry was “increase of luciferase activity was detected”.

The experiment is the same for the next values; noted with them: 1 μM, 4 hours; TGR4 and Gi co-transfected with pCRE-Luc (FIG. 4).
On to lysophosphatidic acid, for which the luciferase activity entry is given as “increase of luciferase activity was detected”. With `CC(C)=CCC/C(C)=C/CC/C(C)=C/CC/C(C)=C/COP(=O)(O)OP(=O)(O)O` [Geranylgeranyl 2-phosphate, geranylgeranyl 2-phosphate], the luciferase activity result is on record as “increase of luciferase activity was detected”. `CC(C)=CCC/C(C)=C/CC/C(C)=C/COP(=O)(O)OP(=O)(O)O` [Farnesyl 2-phosphate, farnesyl 2-phosphate]: the luciferase activity entry is on record as “increase of luciferase activity was detected”.

The next experiment addresses T1, TGR4. The experiment can be described thus: Activation of p44/42 MAP kinase in human TGR4-expressing CHO cells. It is filed as cell-based. The note with it: 0.1 μM; TGR4-expressing CHO cells versus mock cells. The protocol:
Human TGR4-expressing CHO cells and mock cells were seeded on 6-well plate at the concentration of 3×10^5 cells/well and cultured for overnight. For removal of serum, the medium was replaced with α-MEM including no nucleic acid supplemented with 0.1% BSA, and the cells were further incubated for overnight. Until just before assay, preincubation using the same medium for 2 hours was carried out. By adding 0.1 μM farnesyl 2-phosphate to the medium, the treatment was started. With respect to each given time, the medium was removed by aspiration and the reaction was terminated by addition of sumple buffer for SDS-PAGE. In accordance with conventional manner, SDS-PAGE was done and then the proteins were transferred to nitrocellulose membrane. Following the method described in the manual of Phospho Plus p44/42 MAPK (Thr202/Tyr204) Antibody Kit (Cell Signaling), detection of p44/42 MAP kinase was performed. […] Thus it became clear that the enzyme was activated.
Turning to `CC(C)=CCC/C(C)=C/CC/C(C)=C/COP(=O)(O)OP(=O)(O)O` [Farnesyl 2-phosphate, farnesyl 2-phosphate], the “phosphorylation of p44/42 MAP kinase” value is reported as “phosphorylation of MAP kinase specific to human TGR-expressing CHO cells”.

For the next experiment, the target named is T2, TGR4-GFP fusion protein (Homo sapiens, UniProt Q9H1C0).
T2 construct: expressed in transfected cells; host or cells: CHO-mock cells (CHO dhfr- transformed with pAKKO-111H), transient, Lipofectamine 2000
The experiment in a line: Intracellular translocation of TGR4-GFP fusion protein expressed in CHO cells. The class given is cell-based. The note with it: 10^−6 M, thirty minutes after addition. From the text:
Expression plasmid wherein fusion protein that cDNA encoding Green Fluorescent protein (GFP) isolated from Aequorea coerulescens was ligated to the C-terminus of TGR4 by adjusting a translation frame, was constructed. As GFP cDNA, a fragment excised from GFP-expressing vector pQBI25 (Takara Shuzo) was used. The stop codon of TGR4 was modified to the recognition sequence of restriction enzyme NheI by the PCR method. GFP fragment was ligated to the terminus, and the obtained fragment was inserted into the expression vector pAKKO-111H. The thus obtained plasmid, which is an expression vector for fusion protein of TGR4 and GFP (hereinafter referred to as TGR4-GFP) was transfected to CHO-mock cells by the following method. The CHO-mock cells were suspended in growth medium (DMEM (Dulbecco's Modified Eagle Medium) (GIBCO BRL) supplemented with 10% fetal bovine serum (GIBCO BRL)), seeded on Lab-Tek II coverglass chamber (Nalgen Nunc), which has 4 chambers, at the concentration of 0.6×10^5 cells/chamber. After cultivation at 37° C. in the presence of 5% CO2 for overnight, transfection was carried out. For transfection, Lipofectamine™ 2000 Reagent (GIBCO BRL) was used. Firstly, 2 μl of Lipofectamine™ 2000 Reagent and 50 μl of OPTI-MEM-I (GIBCO BRL) were admixed and stood for 20 minutes at room temperature to form a complex of DNA with lipofectamine. […]
For the compound `CC(C)=CCC/C(C)=C/CC/C(C)=C/COP(=O)(O)OP(=O)(O)O` [Farnesyl 2-phosphate, farnesyl 2-phosphate], the “translocation of TGR4-GFP fluorescence from cell membrane” value is recorded as “translocated to cytoplasm”.
